Assay results published in ChEMBL document CHEMBL6121054, “Discovery of Metabolic Reprogramming 2-Quinolones as Effective Antimicrobials for MRSA-Infected Wound Therapy” (J Med Chem, 2025).
Converted amounts (≈) assume the structure as drawn. The source made the active and inactive calls. No cut-off for these calls is given here.

How the values were obtained:
[1] = system: Staphylococcus aureus; assay: Antibacterial activity against Staphylococcus aureus USA300 incubated for 16 to 24 hrs by broth microdilution method; format: functional; conditions: time 16-24 hrs
[2] = system: Staphylococcus aureus; assay: Antibacterial activity against Staphylococcus aureus USA400 incubated for 16 to 24 hrs by broth microdilution method; format: functional; conditions: time 16-24 hrs
[3] = system: Staphylococcus aureus; assay: Antibacterial activity against Staphylococcus aureus NCTC 8325-4 incubated for 16 to 24 hrs by broth microdilution method; format: functional; conditions: time 16-24 hrs
[4] = system: Staphylococcus aureus; assay: Antibacterial activity against Staphylococcus aureus ATCC 25923 incubated for 16 to 24 hrs by broth microdilution method; format: functional; conditions: time 16-24 hrs
[5] = system: Staphylococcus aureus; assay: Antibacterial activity against Staphylococcus aureus ATCC 25904 incubated for 16 to 24 hrs by broth microdilution method; format: functional; conditions: time 16-24 hrs
[6] = system: Staphylococcus aureus; assay: Antibacterial activity against Staphylococcus aureus ATCC 29213 incubated for 16 to 24 hrs by broth microdilution method; format: functional; conditions: time 16-24 hrs
[7] = system: Listeria monocytogenes; assay: Antibacterial activity against Listeria monocytogenes ATCC 19115 incubated for 16 to 24 hrs by broth microdilution method; format: functional; conditions: time 16-24 hrs
[8] = system: Streptococcus suis; assay: Antibacterial activity against Streptococcus suis ZY05719 incubated for 16 to 24 hrs by broth microdilution method; format: functional; conditions: time 16-24 hrs
[9] = system: Escherichia coli; assay: Antibacterial activity against Escherichia coli […] incubated for 16 to 24 hrs by broth microdilution method; format: functional; conditions: time 16-24 hrs
[10] = system: Klebsiella pneumoniae; assay: Antibacterial activity against Klebsiella pneumoniae E8.31 incubated for 16 to 24 hrs by broth microdilution method; format: functional; conditions: time 16-24 hrs
[11] = system: Staphylococcus aureus; assay: Bactericidal activity against methicillin-resistant Staphylococcus aureus MRSA 2; format: functional
[12] = system: Staphylococcus aureus; assay: Bactericidal activity against Staphylococcus aureus USA400; format: functional
[13] = system: Staphylococcus aureus; assay: Bactericidal activity against Staphylococcus aureus ATCC 25904; format: functional
[14] = system: Staphylococcus aureus; assay: Bactericidal activity against Staphylococcus aureus ATCC 25923; format: functional
[15] = system: Staphylococcus aureus; assay: Bactericidal activity against Staphylococcus aureus NCTC 8325-4; format: functional
[16] = system: Staphylococcus aureus; assay: Bactericidal activity against Staphylococcus aureus DU1090; format: functional
[17] = system: Streptococcus suis; assay: Bactericidal activity against Streptococcus suis ZY05719; format: functional
[18] = system: Acinetobacter baumannii; assay: Bactericidal activity against Acinetobacter baumannii ATCC 17978; format: functional
[19] = system: Acinetobacter baumannii; assay: Bactericidal activity against Acinetobacter baumannii ATCC 19606; format: functional
[20] = system: Escherichia coli; assay: Bactericidal activity against Escherichia coli ATCC 25922; format: functional
[21] = system: Klebsiella pneumoniae; assay: Bactericidal activity against Klebsiella pneumoniae 13b5; format: functional
[22] = system: Staphylococcus aureus; assay: Bactericidal activity against methicillin-resistant Staphylococcus aureus USA300 at >= 1 ug/ml measured upto 24 hrs by time-kill assay relative to control; format: functional; conditions: dose >= 1 µg/ml
[23] = system: Staphylococcus aureus; assay: Inhibition of biofilm formation in Staphylococcus aureus USA300 upto 0.13 ug/ml incubated for 24 hrs by crystal violet staining based analysis; format: functional, organism-based; conditions: dose <= 0.13 µg/ml
[24] = system: Staphylococcus aureus; assay: Eradication of mature biofilm formation in Staphylococcus aureus USA300 incubated for 12 hrs by crystal violet staining based analysis; format: functional, organism-based
[25] = system: Staphylococcus aureus; assay: Disruption of cell membrane integrity in Staphylococcus aureus USA300 assessed as irregular cell structures at 4 to 8 times MIC by TEM/SEM analysis; format: functional, organism-based
[26] = system: Staphylococcus aureus; assay: Disruption of cell membrane integrity in Staphylococcus aureus USA300 assessed as indistinct cytoplasmic borders at 4 to 8 times MIC by TEM/SEM analysis; format: functional, organism-based
[27] = system: Staphylococcus aureus; assay: Disruption of cell membrane integrity in Staphylococcus aureus USA300 assessed as swelling at 4 to 8 times MIC by TEM/SEM analysis; format: functional, organism-based
[28] = system: Staphylococcus aureus; assay: Disruption of cell membrane integrity in Staphylococcus aureus USA300 assessed as protein leakage at 0.25 ug/ml incubated for 6 hrs MIC by SDS-PAGE analysis; format: functional, organism-based; conditions: dose 0.25 µg/ml
[29] = target: DNA gyrase (Staphylococcus aureus, UniProt P0A0K8+P20831); assay: Inhibition of Staphylococcus aureus gyrase; format: protein-complex assay
Sequence of DNA gyrase (P0A0K8 whole entry): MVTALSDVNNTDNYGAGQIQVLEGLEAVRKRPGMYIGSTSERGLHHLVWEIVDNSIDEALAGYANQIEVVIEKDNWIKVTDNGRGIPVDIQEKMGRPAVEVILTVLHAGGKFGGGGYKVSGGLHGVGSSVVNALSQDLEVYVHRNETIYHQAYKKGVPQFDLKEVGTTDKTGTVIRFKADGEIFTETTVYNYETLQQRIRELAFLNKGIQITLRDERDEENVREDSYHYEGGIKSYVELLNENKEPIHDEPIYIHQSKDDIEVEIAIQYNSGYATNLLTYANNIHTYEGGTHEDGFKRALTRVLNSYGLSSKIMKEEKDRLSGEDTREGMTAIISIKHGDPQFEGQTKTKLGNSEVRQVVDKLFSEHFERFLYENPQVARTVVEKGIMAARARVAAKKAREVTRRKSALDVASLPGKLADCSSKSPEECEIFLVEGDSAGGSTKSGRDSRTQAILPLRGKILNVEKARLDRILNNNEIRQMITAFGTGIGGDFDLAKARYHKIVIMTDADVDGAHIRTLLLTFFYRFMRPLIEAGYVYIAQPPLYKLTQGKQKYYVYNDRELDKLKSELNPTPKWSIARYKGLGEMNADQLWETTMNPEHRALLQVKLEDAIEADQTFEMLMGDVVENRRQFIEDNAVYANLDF
Sequence of DNA gyrase (P20831 whole entry): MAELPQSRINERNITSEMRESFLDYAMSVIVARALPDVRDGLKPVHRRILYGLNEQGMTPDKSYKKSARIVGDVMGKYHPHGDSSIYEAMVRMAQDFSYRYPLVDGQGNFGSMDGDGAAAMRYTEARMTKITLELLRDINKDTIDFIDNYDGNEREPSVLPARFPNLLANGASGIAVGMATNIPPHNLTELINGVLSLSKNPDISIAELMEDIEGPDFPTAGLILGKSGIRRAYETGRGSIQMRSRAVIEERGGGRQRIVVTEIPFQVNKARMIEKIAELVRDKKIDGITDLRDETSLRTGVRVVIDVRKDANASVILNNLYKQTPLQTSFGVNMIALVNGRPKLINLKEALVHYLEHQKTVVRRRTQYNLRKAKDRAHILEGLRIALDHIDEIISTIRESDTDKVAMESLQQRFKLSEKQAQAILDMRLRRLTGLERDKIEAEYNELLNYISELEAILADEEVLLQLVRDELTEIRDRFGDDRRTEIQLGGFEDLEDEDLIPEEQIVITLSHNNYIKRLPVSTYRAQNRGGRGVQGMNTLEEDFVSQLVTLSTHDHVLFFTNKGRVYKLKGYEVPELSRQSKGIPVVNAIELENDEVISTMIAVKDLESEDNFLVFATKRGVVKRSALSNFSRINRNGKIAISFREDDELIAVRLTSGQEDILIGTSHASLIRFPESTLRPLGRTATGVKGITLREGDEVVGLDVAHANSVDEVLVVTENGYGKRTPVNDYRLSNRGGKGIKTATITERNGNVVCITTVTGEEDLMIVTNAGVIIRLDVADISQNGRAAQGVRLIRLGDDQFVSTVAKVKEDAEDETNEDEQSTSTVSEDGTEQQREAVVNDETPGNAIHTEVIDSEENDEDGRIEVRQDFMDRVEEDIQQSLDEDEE

[30] = system: Staphylococcus aureus; assay: Effect on pyrimidine metabolism in Staphylococcus aureus USA300 at 4 times MIC by KEGG analysis; format: functional, organism-based
[31] = system: Staphylococcus aureus; assay: Effect on biosynthesis of co-factors in Staphylococcus aureus USA300 at 4 times MIC by KEGG analysis; format: functional, organism-based
[32] = system: Staphylococcus aureus; assay: Effect on tyrosine metabolism in Staphylococcus aureus USA300 at 4 times MIC by KEGG analysis; format: functional, organism-based
[33] = system: Staphylococcus aureus; assay: Effect on histidine metabolism in Staphylococcus aureus USA300 at 4 times MIC by KEGG analysis; format: functional, organism-based
[34] = system: Staphylococcus aureus; assay: Antibacterial activity against Staphylococcus aureus USA300 assessed as acceleration of TCA cycle measured by increase in mqo mRNA level upto 0.25 ug/ml incubated for 6 hrs by RT-PCR analysis; format: functional, organism-based; conditions: dose <= 0.25 µg/ml
[35] = system: Staphylococcus aureus; assay: Induction of ROS accumulation in Staphylococcus aureus USA300 upto 0.25 ug/ml incubated for 1 hr by DCFH-DA dye based analysis; format: functional, organism-based; conditions: dose <= 0.25 µg/ml
[36] = system: Staphylococcus aureus; assay: Antibacterial activity against Staphylococcus aureus USA300 at 2 times MIC measured upto 24 hrs in presence of alpha-tocopherol; format: functional, organism-based
[37] = system: A549; assay: Cytotoxicity against human A549 cells assessed as cell viability upto 8 ug/ml incubated for 6 hrs by LDH assay; format: toxicity, cell-based; conditions: a549, 6 h, dose < 8 µg/ml
[38] = system: Caco-2; assay: Cytotoxicity against human Caco-2 cells assessed as cell viability upto 8 ug/ml incubated for 6 hrs by LDH assay; format: toxicity, cell-based; conditions: caco-2, 6 h, dose < 8 µg/ml
[39] = Hemolytic activity in rabbit RBCs upto 8 ug/ml incubated for 1 hr; format: toxicity, cell-based, Oryctolagus cuniculus; conditions: erythrocyte, dose < 8 µg/ml
[40] = system: A549; assay: Reversal of Staphylococcus aureus USA300-induced cytotoxicity in human A549 cells infected with bacteria assessed as reduction in number of dead cells at 4 to 8 ug/ml preincubated with compound followed by […] infection for 5 hrs by Calcein AM/Ethidium homodimer-1 dye based analysis; format: functional, cell-based; conditions: dose 4-8 µg/ml
[41] = system: Staphylococcus aureus; assay: Antibacterial activity against methicillin-resistant Staphylococcus aureus infected in BALB/c mouse wound model assessed as neovascularization in skin tissue at 20 to 80 mg/kg administered topically on days 0, 3 and 6 measured for 6 to 12 days by H and E staining based analysis; format: functional, organism-based; conditions: dose 20-80 mg/kg, route top, time 6-12 day
[42] = system: Staphylococcus aureus; assay: Antibacterial activity against methicillin-resistant Staphylococcus aureus infected in BALB/c mouse wound model assessed as organised collagen fibers in skin tissue at 20 to 80 mg/kg administered topically on days 0, 3 and 6 measured for 6 to 12 days by Masson's trichome staining based analysis; format: functional, organism-based; conditions: dose 20-80 mg/kg, route top, time 6-12 day
[43] = system: Staphylococcus aureus; assay: Antibacterial activity against methicillin-resistant Staphylococcus aureus infected in BALB/c mouse wound model assessed as reversal of inflammation-induced TNF-alpha level in wound at 20 to 80 mg/kg administered topically on days 0, 3 and 6 measured after 12 days by ELISA; format: functional, organism-based; conditions: dose 20-80 mg/kg, route top, time 12.0 day
[44] = system: Staphylococcus aureus; assay: Antibacterial activity against methicillin-resistant Staphylococcus aureus infected in BALB/c mouse wound model assessed as reversal of inflammation-induced IL-6 level in wound at 20 to 80 mg/kg administered topically on days 0, 3 and 6 measured after 12 days by ELISA; format: functional, organism-based; conditions: dose 20-80 mg/kg, route top, time 12.0 day

CCn1c(=O)c(C(=O)Nc2nnc(-c3ccc(C)cn3)s2)c(O)c2ccccc21
MIC [1]: 0.04 µg/mL (≈ 0.0982 µM) | MIC [2]: 0.03 µg/mL (≈ 0.0736 µM) | MIC [3]: 0.03 µg/mL (≈ 0.0736 µM) | MIC [4]: 0.03 µg/mL (≈ 0.0736 µM) | MIC [5]: 0.02 µg/mL (≈ 0.0491 µM) | MIC [6]: 0.03 µg/mL (≈ 0.0736 µM) | MIC [7]: 0.02 µg/mL (≈ 0.0491 µM) | MIC [8]: 0.04 µg/mL (≈ 0.0982 µM) | MIC [9]: > 512 µg/mL | MIC [10]: > 512 µg/mL | MBC [11]: 0.05 µg/mL (≈ 0.123 µM) | MBC [12]: 0.05 µg/mL (≈ 0.123 µM) | MBC [13]: 0.17 µg/mL (≈ 0.417 µM) | MBC [14]: 0.1 µg/mL (≈ 0.245 µM) | MBC [15]: 0.09 µg/mL (≈ 0.221 µM) | MBC [16]: 0.23 µg/mL (≈ 0.564 µM) | MBC [17]: 0.1 µg/mL (≈ 0.245 µM) | MBC [18]: > 512 µg/mL | MBC [19]: > 512 µg/mL | MBC [20]: > 512 µg/mL | MBC [21]: > 512 µg/mL | Activity [22]: ~100% | inhibition [23]: Active | Activity [24]: Active | Activity [25]: Active | Activity [26]: Active | Activity [27]: Active | Activity [28]: Active | IC50 [29]: 1190 nM | Activity [30]: Active | Activity [31]: Active | Activity [32]: Active | Activity [33]: Active | Activity [34]: Active | Activity [35]: Active | Activity [36]: inactive | Activity [37]: Non-toxic | Activity [38]: Non-toxic | Activity [39]: Non-toxic | Activity [40]: Active | Activity [41]: Active | Activity [42]: Active | Activity [43]: Active | Activity [44]: Active
